Read-outs that look alike come from different tables or passages of the source.
Legend:
[1] = system: Jurkat T cells; assay: Inhibition of Jurkat T cell growth (GI50), MTS assay; type: cell-based; conditions: Homo sapiens
Protocol: These compounds were selected for further testing to estimate their 50% growth inhibition (GI50) value. Standard antileukemic drugs mercaptopurine, methotrexate and cytarabine were chosen as positive controls.
(§1) An MTS (3-(4,5-dimethylthiazol-2-yl)-5-(3-carboxymethoxyphenyl)-2-(4-sulfophenyl)-2H-tetrazolium inner salt) assay[20] was used to assess the leukemic cell viability. Jurkat T cells (human leukemic T cell, clone E6-1) from American Type Culture Collection (ATCC) were cultured in RPMI-1640 medium (Nacalai Tesque, Japan) supplemented with 10% v/v fetal bovine serum (FBS) (Biosera, France). The cells were maintained at 37 °C in a humidified 5% CO2 incubator (Thermo Fisher, USA). A total of 2 × 10^3 cells per 100 μL cell culture media were seeded into each well of a 96-well plate and incubated for 24 h. Then, tested compounds or reference drugs [6-mercaptopurine (Merck Millipore, Germany), methotrexate (Merck Millipore, Germany) and cytarabine (Merck Millipore, Germany)] were added, followed by incubation for 72 h. After that, a mixture of MTS (Sigma Aldrich, USA) and phenazine methosulfate (PMS) (Nacalai Tesque, Japan) were added to each well, followed by another incubation for 1 h to 4 h at 37 °C. The absorbance in each well was measured at 490 nm using a microplate reader (Tecan NanoQuant Infinite M200 Pro, Austria). The percentage of cell viability was estimated by comparing absorbance in wells with the treated and untreated (vehicle control) cells using the following formula: ODtreated/ODuntreated × 100%. All experiments were performed in triplicate and repeated in three independent experiments. The GI50 values were calculated using sigmoidal concentration-response curves generated by the GraphPad Prism 8 program.[21]

[2] = system: Jurkat T cells; assay: Antiproliferative screening at 10 μM, MTS assay; type: cell-based, human; conditions: for viability at 10 µM: Homo sapiens, Jurkat T cells, 72 h after treatment, MTS, mean of three independent experiments, read-out: Cell viability (%); for Antiproliferative activity against Jurkat T cells (in words): screening concentration 10 μM, 72 h
Protocol: The Jurkat T cell line was chosen for its reliability as a model for chemotherapeutic studies, particularly in T-cell leukemia.[13]
as §1, with “Jurkat T cells (human leukemic T cell, clone E6-1) from American Type Culture Collection (ATCC) were cultured in RPMI-1640 medium (Nacalai Tesque, Japan) supplemented with 10% v/v fetal bovine serum (FBS) (Biosera, France). The cells were maintained at 37 °C in a humidified 5% CO2 incubator (Thermo Fisher, USA).” left out, “After that, a mixture of MTS (Sigma Aldrich, USA) and phenazine methosulfate (PMS) (Nacalai Tesque, Japan) were added to each well, followed by another incubation for 1 h to 4 h at 37 °C.” left out

[3] = GI50 against Jurkat T cells converted to negative logarithmic scale, read-out: Experimental pGI50 (converted)
[4] = concentration required to inhibit Jurkat T cell growth by 50%, 72 h, MTS, mean of three independent experiments, read-out: GI50 ± SEM

Row | GI50 [1, 3] | GI50 [1, 4] | melting point | SMILES | viability at 10 µM [2] | Antiproliferative activity against Jurkat T cells (in words) [2]
1 | 10.7 µM | 10.8 ± 0.13 µM | 136 to 137 °C | Nc1nc(-c2ccc(OC(F)(F)F)cc2)nc(N2CCCCC2)n1 [9{2,12}, 6-[4-(Trifluoromethoxy)phenyl]-4-piperidino-1,3,5-triazine-2-amine] | 12% | effectively inhibited Jurkat T cell growth
2 | 6.92 µM | 6.88 ± 1.22 µM | 125 to 126 °C | Nc1nc(-c2cccc(Oc3ccccc3)c2)nc(N2CCCCC2)n1 [9{2,13}, 4-Piperidino-6-(3-phenoxyphenyl)-1,3,5-triazine-2-amine] | 10% | effectively inhibited Jurkat T cell growth
3 | 7.76 µM | 7.68 ± 0.11 µM | 157 to 158 °C | Nc1nc(-c2cccc(OCc3ccccc3)c2)nc(N2CCCCC2)n1 [9{2,14}, 6-[3-(Benzyloxy)phenyl]-4-piperidino-1,3,5-triazine-2-amine] | 8% | effectively inhibited Jurkat T cell growth
4 | 4.47 µM | 4.51 ± 0.15 µM | 170 to 171 °C | CC1CCN(c2nc(N)nc(-c3ccc(C(F)(F)F)cc3)n2)CC1 [9{3,11}, 6-[4-(Trifluoromethyl)phenyl]-4-(4-methylpiperidino)-1,3,5-triazine-2-amine] | 11% | effectively inhibited Jurkat T cell growth
5 | – | – | 220 to 221 °C | Cc1ccc(-c2nc(N)nc(N3CCN(C)CC3)n2)cc1 [9{4,6}, 6-(4-Methylphenyl)-4-(4-methylpiperazino)-1,3,5-triazine-2-amine] | 100% | –
6 | 21.9 µM | 21.8 ± 1.1 µM | – | CN1CCN(c2nc(N)nc(-c3ccc(C(C)(C)C)cc3)n2)CC1 [9{4,7}, 6-[4-(tert-Butyl)phenyl]-4-(4-methylpiperazino)-1,3,5-triazine-2-amine] | 16% | effectively inhibited Jurkat T cell growth
7 | – | – | 244 to 245 °C | CN1CCN(c2nc(N)nc(-c3ccc(N(C)C)cc3)n2)CC1 [9{4,8}, 6-[4-(N,N-Dimethylamino)phenyl]-4-(4-methylpiperazino)-1,3,5-triazine-2-amine] | 99% | –
8 | – | – | 196 to 197 °C | COc1ccc(-c2nc(N)nc(N3CCN(C)CC3)n2)cc1 [9{4,9}, 6-(4-Methoxyphenyl)-4-(4-methylpiperazino)-1,3,5-triazine-2-amine] | 100% | –
9 | – | – | 226 to 227 °C | CN1CCN(c2nc(N)nc(-c3cccc([N+](=O)[O-])c3)n2)CC1 [9{4,10}, 4-(4-Methylpiperazino)-6-(3-nitrophenyl)-1,3,5-triazine-2-amine] | 100% | –
10 | – | – | 194 to 195 °C | CN1CCN(c2nc(N)nc(-c3ccc(C(F)(F)F)cc3)n2)CC1 [9{4,11}, 6-[4-(Trifluoromethyl)phenyl]-4-(4-methylpiperazino)-1,3,5-triazine-2-amine] | 100% | –
11 | – | – | 194 to 195 °C | CN1CCN(c2nc(N)nc(-c3ccc(OC(F)(F)F)cc3)n2)CC1 [9{4,12}, 6-[4-(Trifluoromethoxy)phenyl]-4-(4-methylpiperazino)-1,3,5-triazine-2-amine] | 100% | –
12 | – | – | 117 to 118 °C | CN1CCN(c2nc(N)nc(-c3cccc(OCc4ccccc4)c3)n2)CC1 [9{4,14}, 6-[3-(Benzyloxy)phenyl]-4-(4-methylpiperazino)-1,3,5-triazine-2-amine] | 73% | –
13 | – | – | 191 to 192 °C | CN1CCN(c2nc(N)nc(-c3ccc(OCc4ccccc4)cc3)n2)CC1 [9{4,15}, 6-[4-(Benzyloxy)phenyl]-4-(4-methylpiperazino)-1,3,5-triazine-2-amine] | 74% | –
14 | – | – | 223 to 224 °C | COc1ccc(-c2nc(N)nc(N3CCN(C)CC3)n2)cc1OC [9{4,16}, 6-(3,4-Dimethoxyphenyl)-4-(4-methylpiperazino)-1,3,5-triazine-2-amine] | 100% | –
15 | – | – | 234 to 235 °C | COc1cc(-c2nc(N)nc(N3CCN(C)CC3)n2)cc(OC)c1OC [9{4,17}, 6-(3,4,5-Trimethoxyphenyl)-4-(4-methylpiperazino)-1,3,5-triazine-2-amine] | 100% | –
16 | 1.95 µM | 1.95 ± 0.25 µM | – | Nc1nc(-c2ccccc2)nc(N2CCc3ccccc3C2)n1 [9{6,1}] | 12% | –
17 | – | – | 201 to 202 °C | CN(C)c1ccc(-c2nc(N)nc(N3CCc4ccccc4C3)n2)cc1 [9{6,8}, 6-[4-(N,N-Dimethylamino)phenyl]-4-(3,4-dihydroisoquinolin-2(1H)-yl)-1,3,5-triazine-2-amine] | 100% | –
18 | – | – | 143 to 144 °C | Nc1nc(-c2ccc(OCc3ccccc3)cc2)nc(N2CCc3ccccc3C2)n1 [9{6,15}, 6-(4-(Benzyloxy)phenyl)-4-(3,4-dihydroisoquinolin-2(1H)-yl)-1,3,5-triazine-2-amine] | 59% | –
19 | – | – | 198 to 199 °C | COc1cc(-c2nc(N)nc(N3CCc4ccccc4C3)n2)cc(OC)c1OC [9{6,17}, 6-(3,4,5-Trimethoxyphenyl)-4-(3,4-dihydroisoquinolin-2(1H)-yl)-1,3,5-triazine-2-amine] | 96% | –
20 | – | – | 170 to 171 °C | Nc1nc(-c2cccs2)nc(N2CCc3ccccc3C2)n1 [9{6,18}, 4-(3,4-Dihydroisoquinolin-2(1H)-yl)-6-(2-thienyl)-1,3,5-triazine-2-amine] | 78% | inactive against Jurkat T cells
21 | – | – | 219 to 220 °C | COc1ccc(-c2nc(N)nc(N3CCc4ccccc43)n2)cc1 [9{7,9}, 6-(4-Methoxyphenyl)-4-(indolin-1-yl)-1,3,5-triazine-2-amine] | 85% | –
22 | – | – | 227 to 228 °C | Nc1nc(-c2ccc(C(F)(F)F)cc2)nc(N2CCc3ccccc32)n1 [9{7,11}, 6-[4-(Trifluoromethyl)phenyl]-4-(indolin-1-yl)-1,3,5-triazine-2-amine] | 53% | –
23 | – | – | 195 to 196 °C | Nc1nc(-c2ccc(OC(F)(F)F)cc2)nc(N2CCc3ccccc32)n1 [9{7,12}, 6-[4-(Trifluoromethoxy)phenyl]-4-(indolin-1-yl)-1,3,5-triazine-2-amine] | 73% | –
24 | – | – | 183 to 184 °C | COc1ccc(-c2nc(N)nc(N3CCc4ccccc43)n2)cc1OC [9{7,16}, 6-(3,4-Dimethoxyphenyl)-4-(indolin-1-yl)-1,3,5-triazine-2-amine] | 67% | –
25 | – | 0.29 ± 0.01 µM | – | Nc1ccn([C@@H]2O[C@H](CO)[C@@H](O)[C@@H]2O)c(=O)n1 [Cytarabine, cytarabine, reference compound] | – | –
26 | – | 11.1 ± 4.89 µM | – | S=c1[nH]cnc2nc[nH]c12 [Mercaptopurine, mercaptopurine, reference compound] | – | –

Source: publication PMC10925993, “6-Aryl-4-cycloamino-1,3,5-triazine-2-amines: synthesis, antileukemic activity, and 3D-QSAR modelling” (RSC Advances, 2024)
